Results taken from US11584744B2 (UNIVERSITY OF WASHINGTON, priority 2017, dated 2023).
Values after ≈ are worked out from the molar mass of the structure shown. Values joined by “and” are separate entries in the source; they are usually repeats but may differ in a detail not shown here. Equal values may be shown once. Read-outs that look alike come from different tables or passages of the source.

Key:
[1] = system: S. aureus MSSA (ATCC 29213); test: MIC susceptibility testing; type: cell-based, Staphylococcus aureus; conditions: Staphylococcus aureus, S. aureus ATCC 29213; read-out: (F) S. aureus (ATCC 29213) MIC
From the text: Media and culture conditions. Mueller Hinton broth (MHB), cation adjusted Mueller Hinton broth (CA-MHB), and Brain Heart Infusion broth (BHI) were purchased from Becton Dickinson (Franklin Lakes, N.J.). Tryptic soy agar (TSA) plates, TSA with 5% sheep blood plates, and CA-MHB with 3% laked horse blood were purchased from Remel (San Diego, Calif.). MHB was used to assay all Staphylococcus aureus strains. CA-MHB was used for Staphylococcus epidermidis, Enterococcus faecalis, Enterococcus faecium, Escherichia coli, and Pseudomonas aeruginosa. CA-MHB supplemented with 3% laked horse blood was used for Streptococcus pneumoniae and Streptococcus pyogenes. Staphylococcus, Enterococcus, Escherichia, and Pseudomonas strains were cultured at 37° C. with ambient air. Streptococcus strains were cultured in 37° C. with 5% CO2. Separate conditions for radiolabeled precursor uptake assays are described below.
Susceptibility testing: Minimum inhibitory concentration (MIC) determinations were performed in triplicate in 96-well round bottom microtiter plates (Corning, Corning N.Y.) as described by the Clinical and Laboratory Standards Institute (CLSI). Serial two-fold dilutions of compounds were added to plates in 50 μL volumes. An additional 50 μL of media containing bacterial cells (1×10^6 CFUs/mL) was then added to each well. Maximum DMSO concentrations were 0.5%. Plates were incubated at 37° C. for at least 18 h before reading the susceptibility result by optical absorbance (OD600) using a BioTek ELx800. The lowest concentration causing ≥90% growth inhibition compared to the untreated control was recorded as the MIC (and also corresponded to the visual MIC). MICs were measured at least twice and the higher value (if different) was recorded herein.

MetRS (T. brucei) = biological target: T1, MetRS (T. brucei) (Trypanosoma brucei brucei, UniProt Q38C91); test: MetRS (T. brucei) enzyme inhibition; type: biochemical
T1 sequence (Q38C91 1-773): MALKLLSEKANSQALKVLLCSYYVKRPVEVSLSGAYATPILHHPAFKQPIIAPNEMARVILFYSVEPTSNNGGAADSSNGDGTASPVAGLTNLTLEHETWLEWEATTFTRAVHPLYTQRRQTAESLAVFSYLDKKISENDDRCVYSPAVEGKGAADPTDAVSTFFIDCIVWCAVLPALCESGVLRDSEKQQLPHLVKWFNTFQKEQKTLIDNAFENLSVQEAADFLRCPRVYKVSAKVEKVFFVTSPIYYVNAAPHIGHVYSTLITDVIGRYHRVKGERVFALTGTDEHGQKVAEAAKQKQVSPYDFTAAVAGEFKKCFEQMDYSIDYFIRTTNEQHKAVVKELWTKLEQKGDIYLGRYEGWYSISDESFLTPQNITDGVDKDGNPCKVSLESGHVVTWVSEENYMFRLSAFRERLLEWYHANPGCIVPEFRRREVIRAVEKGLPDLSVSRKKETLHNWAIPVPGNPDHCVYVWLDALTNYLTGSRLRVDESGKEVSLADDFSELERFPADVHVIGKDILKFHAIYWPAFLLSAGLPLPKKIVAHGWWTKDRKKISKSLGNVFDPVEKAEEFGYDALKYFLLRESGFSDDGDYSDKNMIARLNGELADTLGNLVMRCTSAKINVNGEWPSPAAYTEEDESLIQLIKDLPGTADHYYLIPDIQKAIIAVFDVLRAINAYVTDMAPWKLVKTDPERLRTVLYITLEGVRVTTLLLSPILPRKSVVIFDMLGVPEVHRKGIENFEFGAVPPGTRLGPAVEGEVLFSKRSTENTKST

MetRS (C. parvum) = MetRS (C. parvum) (Cryptosporidium parvum, UniProt Q5CVN0); test: MetRS (C. parvum) enzyme inhibition; type: biochemical
Chain of MetRS (C. parvum) (Q5CVN0 entry or part of it): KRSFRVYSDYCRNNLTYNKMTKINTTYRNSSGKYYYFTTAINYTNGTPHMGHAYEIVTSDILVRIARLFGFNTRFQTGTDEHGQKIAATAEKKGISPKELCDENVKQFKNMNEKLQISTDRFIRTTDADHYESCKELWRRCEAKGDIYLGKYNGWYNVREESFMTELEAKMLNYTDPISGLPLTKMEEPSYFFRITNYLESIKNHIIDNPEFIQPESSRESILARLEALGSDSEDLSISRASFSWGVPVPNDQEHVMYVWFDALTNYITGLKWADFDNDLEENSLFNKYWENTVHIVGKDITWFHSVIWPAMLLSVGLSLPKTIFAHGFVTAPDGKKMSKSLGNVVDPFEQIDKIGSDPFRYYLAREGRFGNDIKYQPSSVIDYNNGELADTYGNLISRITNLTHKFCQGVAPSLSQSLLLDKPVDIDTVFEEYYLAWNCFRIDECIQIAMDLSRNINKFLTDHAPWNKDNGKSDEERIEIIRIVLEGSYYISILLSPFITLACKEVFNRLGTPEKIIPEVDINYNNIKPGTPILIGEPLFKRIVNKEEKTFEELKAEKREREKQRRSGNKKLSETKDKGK

T. cruzi = T. cruzi growth inhibition; type: cell-based, Trypanosoma cruzi; conditions: read-out: (E) T. cruzi EC50
C. parvum = C. parvum growth inhibition; type: cell-based, Cryptosporidium parvum; conditions: read-out: (J) C. parvum EC50
T. brucei = T. brucei growth inhibition; type: cell-based, Trypanosoma brucei; conditions: read-out: (D) T. brucei EC50
[2] = read-out: (C) MetRS (C. parvum) IC50

Row | SMILES | MIC [1] | IC50 (MetRS (T. brucei)) | IC50 (MetRS (C. parvum); [2]) | EC50 (T. cruzi; Trypanosoma cruzi) | EC50 (C. parvum; Cryptosporidium parvum) | EC50 (T. brucei; Trypanosoma brucei) | EC50 (T. brucei) | EC50 (C. parvum) | IC50 (MetRS (C. parvum)) | EC50 (T. cruzi)
1 | O=c1n(Cc2nc3ccc(F)nc3[nH]2)cc(Cc2ccc(Cl)cc2Cl)n1C1CCCCC1 [Compound 2071, 3-cyclohexyl-4-[(2,4-dichlorophenyl)methyl]-1-({5-fluoro-1H-imidazo[4,5-b]pyridin-2-yl}methyl)-2,3-dihydro-1H-imidazol-2-one] | > 2.5 µg/mL | < 40 nM | < 40 nM | 526 nM | > 2000 nM |  |  |  |  | 
2 | C#CCn1c(Cc2ccc(Cl)cc2Cl)cn(Cc2nc3ccc(F)nc3[nH]2)c1=O [Compound 2085, 4-[(2,4-dichlorophenyl)methyl]-1-({5-fluoro-1H-imidazo[4,5-b]pyridin-2-yl}methyl)-3-(prop-2-yn-1-yl)-2,3-dihydro-1H-imidazol-2-one] | 1.71 µg/mL (≈ 3.97 µM) | < 40 nM | < 40 nM | 514 nM | 834 nM | 4.56 nM | 9.03 nM | 683 nM |  | 
3 | COc1ccc(-c2cnn3c2CN(Cc2nc4nc(F)ccc4[nH]2)CC3)c(Cl)c1 [Compound 2170, 2-((3-(2-chloro-4-methoxyphenyl)-6,7-dihydropyrazolo[1,5-a]pyrazin-5(4H)-yl)methyl)-5-fluoro-1H-imidazo[4,5-b]pyridine] |  | < 40 nM | < 40 nM | 1330 nM | 1780 nM | 64.5 nM |  |  |  | 
4 | COc1ccc(-c2ccc(NC(C)=O)c3nc(Cc4nc5nc(F)ccc5[nH]4)cn23)c(Cl)c1 [Compound 2183, N-[5-(2-chloro-4-methoxyphenyl)-2-({5-fluoro-1H-imidazo[4,5-b]pyridin-2-yl}methyl)imidazo[1,2-a]pyridin-8-yl]acetamide] | 0.245 µg/mL (≈ 0.527 µM) | < 40 nM | < 40 nM | 116 nM | 629 nM |  |  |  |  | 
5 | Clc1ccc(Cc2cn(Cc3nc4cc(Cl)ccc4[nH]3)cn2)c(Cl)c1 [Compound 2192, 6-chlor0-2-({4-[(2,4-dichlorophenyl)-methyl]-1H-imidazol-1-yl}methyl)-1H-1,3-benzodiazole] |  | < 40 nM |  | 516 nM | > 2000 nM | 85.2 nM |  |  | 114 nM | 
6 | COc1ccc(Cc2cn(Cc3nc4nc(Cl)ccc4[nH]3)c(=O)n2CC(C)(C)NC(C)=O)c(Cl)c1 [Compound 2209, N-{1-[3-({5-chloro-1H-imidazo[4,5-b]pyridin-2-yl}methyl)-5-[(2-chloro-4-methoxyphenyl)methyl]-2-oxo-2,3-dihydro-1H-imidazol-1-yl]-2-methylpropan-2-yl}acetamide] |  | 380 nM and 781 nM |  | 4620 nM | > 2000 nM |  |  |  |  | 
7 | NCCn1c(Cc2ccc(Cl)cc2Cl)cn(Cc2nc3ccc(Cl)nc3[nH]2)c1=O [Compound 2214, 3-(2-aminoethyl)-1-((5-chloro-3H-imidazo[4,5-b]pyridin-2-yl)methyl)-4-(2,4-dichlorobenzyl)-1,3-dihydro-2H-imidazol-2-one] | > 2.5 µg/mL | < 40 nM | 74.5 nM | 367 nM | > 2000 nM | 3.73 nM |  |  |  | 
8 | O=C(O)Cn1c(C(=O)c2ccc(Cl)cc2Cl)cn(Cc2nc3ccc(Cl)nc3[nH]2)c1=O [Compound 2216, 2-[3-({5-chloro-1H-imidazo[4,5-b]pyridin-2-yl}methyl)-5-(2,4-dichlorobenzoyl)-2-oxo-2,3-dihydro-1H-imidazol-1-yl]acetic acid] |  | < 40 nM | 53.2 nM | > 5000 nM | > 2000 nM | 287 nM |  |  |  | 
9 | COC(=O)c1c(Cl)ccc2[nH]c(Cc3cn4c(-c5ccc(OC)cc5Cl)cccc4n3)nc12 [Compound 2236, methyl 5-chlor0-2-{[5-(2-chloro-4-methoxyphenyl)imidazo[1,2-a]pyridin-2-yl]methyl}-1H-1,3-benzodiazole-4-carboxylate] |  |  | 335 nM |  | > 2000 nM | 1660 nM |  |  |  | 
10 | COC(=O)c1c(Cl)ccc2[nH]c(Cn3cc(Cc4ccc(OC)cc4Cl)n(CC(C)(C)O)c3=O)nc12 [Compound 2237, methyl 5-chlor0-2-({4-[(2-chloro-4-methoxyphenyl)methyl]-3-(2-hydroxy-2-methylpropyl)-2-oxo-2,3-dihydro-1H-imidazol-1-yl}methyl)-1H-1,3-benzodiazole-4-carboxylate] |  |  | > 1000 nM |  | > 2000 nM | 546 nM |  |  |  | 
11 | COc1ccc(Cc2cn(Cc3nc4ncc(Cl)c(C)c4[nH]3)c(=O)n2CC(C)(C)O)c(Cl)c1 [Compound 2238, 4-[(2-chloro-4-methoxyphenyl)methyl]-1-({6-chloro-7-methyl-1H-imidazo[4,5-b]pyridin-2-yl}methyl)-3-(2-hydroxy-2-methylpropyl)-2,3-dihydro-1H-imidazol-2-one] |  |  | 127 nM |  | > 2000 nM | 174 nM |  |  |  | 
12 | COc1ccc(Cc2cn(Cc3nc4nc(Cl)ccc4[nH]3)c(=O)n2CC(F)F)c(Cl)c1 [Compound 2258, 1-({5-chloro-1H-imidazo[4,5-b]pyridin-2-yl}methyl)-4-[(2-chloro-4-methoxyphenyl)methyl]-3-(2,2-difluoroethyl)-2,3-dihydro-1H-imidazol-2-one] | 0.415 µg/mL (≈ 0.886 µM) |  |  | 5.39 nM | 188 nM | < 0.91 nM | 1.35 nM | 193 nM |  | 5.96 nM
13 | CCn1c(Cc2ccc(Cl)cc2Cl)cn(Cc2nc3ccc(F)c(F)c3[nH]2)c1=O [Compound 2262, 4-[(2,4-dichlorophenyl)methyl]-1-[(6,7-difluoro-1H-1,3-benzodiazol-2-yl)methyl]-3-ethyl-2,3-dihydro-1H-imidazol-2-one] | 0.557 µg/mL (≈ 1.27 µM) |  |  | 126 nM | 1500 nM | 18.9 nM | 25.6 nM |  |  | 
14 | O=c1n(Cc2nc3c(F)c(F)ccc3[nH]2)cc(Cc2ccc(Cl)cc2Cl)n1CC(F)F [Compound 2263, 4-[(2,4-dichlorophenyl)methyl]-1-[(6,7-difluoro-1H-1,3-benzodiazol-2-yl)methyl]-3-(2,2-difluoroethyl)-2,3-dihydro-1H-imidazol-2-one] | 3.29 µg/mL (≈ 6.95 µM) |  |  | 366 nM | > 2000 nM | 64.4 nM | 69.1 nM |  |  | 
15 | O=c1n(Cc2nc3c(F)c(F)ccc3[nH]2)cc(Cc2ccc(Cl)cc2Cl)n1CC1CCNCC1(F)F (stereo not shown) [Compound 2264, 5-(2,4-dichlorobenzyl)-3-((4,5-difluoro-1H-benzo[d]imidazol-2-yl)methyl)-1-((3,3-difluoropiperidin-4-yl)methyl)-1H-imidazol-2(3H)-one] | 1.22 µg/mL (≈ 2.25 µM) |  |  | 133 nM | > 2000 nM | 39.9 nM | 73.1 nM |  |  | 
16 | CC(=O)N1CCC(Cn2c(Cc3ccc(Cl)cc3Cl)cn(Cc3nc4nc(F)ccc4[nH]3)c2=O)C(F)(F)C1 (stereo not shown) [Compound 2265, 3-[(1-acetyl-3,3-difluoropiperidin-4-yl)methyl]-4-[(2,4-dichlorophenyl)methyl]-1-({5-fluoro-1H-imidazo[4,5-b]pyridin-2-yl}methyl)-2,3-dihydro-1H-imidazol-2-one] | 1.62 µg/mL (≈ 2.86 µM) |  |  | 325 nM | 1840 nM |  |  |  |  | 
